{"source": "patent US20240376087A1", "about": "“PYRAZOLE AMIDE BASED COMPOUNDS AND USES AGAINST BREAST CANCER THEREOF” (COUNCIL OF SCIENTIFIC AND INDUSTRIAL RESEARCH AN INDIAN …, priority 2021, published 2024)", "type_in_all_cases": "cell-based, human", "key": {"MDA MB 231 cells [1]": {"system": "MDA MB 231 cells", "assay": "Growth inhibitory study of I-8 in combination with paclitaxel", "settings": "5 μM I-8 in combination with paclitaxel"}, "MDA MB 231 cells [2]": {"system": "MDA MB 231 cells", "assay": "Phosphatidyl serine translocation by annexin V staining", "settings": "MDA MB 231, annexin V staining, 24 hrs", "description": "The translocation of phosphatidyl serine to the outer leaflet of plasma membrane during apoptosis was studied by Annexin V-Cy3™ Apoptosis Detection Kit. After treatment with different concentrations of NIIST-AC-1 for 24 hrs, the cells were washed and stained with annexin V for 10 min. After the staining solution was removed, the binding buffer was added and the cells observed under a spinning disc fluorescent microscope (BD Biosciences), and images were taken using the software BD Atto Vision version 1.6."}, "MMP-9": {"system": "MMP-9", "assay": "Gelatin zymography for MMP activity", "settings": "gelatin zymography of spent medium", "description": "The activity of MMPs in the spent medium from the cell culture was allowed to react with the substrate gelatin impregnated in the SDS-PAGE gel. After electrophoresis, the gel was washed with Triton solution and incubated with activation buffer 50 mM Tris containing 0.2 M NaCl and 5 mM CaCl2) at 37° C. for 18-20 h for reaction to occur. The gel was stained with Coomassie Brilliant Blue solution and after destaining, gelatin cleaved zones by MMPs were observed as white clear zones which were imaged using ChemiDoc™ MP System with IMAGE LAB™ Software (Bio-Rad)."}}}
{"smiles": "COc1cc(-c2cc(C(=O)NCc3cc(C(F)(F)F)cc(C(F)(F)F)c3)[nH]n2)cc(OC)c1OC", "note": "[I-8, N-(3,5-bis(trifluoromethyl)benzyl)-3-(3,4,5-trimethoxyphenyl)-1H-pyrazole-5-carboxamide]", "values": [{"measurement": "lowering of paclitaxel concentration required for 50% growth inhibition", "setting": "MDA MB 231 cells [1]", "result": 10, "unit": "times"}, {"measurement": "phosphatidyl serine translocation", "setting": "MDA MB 231 cells [2]", "result": "phosphatidyl serine translocation"}, {"measurement": "MMP-9 activity", "setting": "MMP-9", "result": "reduced"}]}
